Read-outs that look alike come from different tables or passages of the source. Non-standard residues stand in square brackets, D forms with d. Residues, ends and D or L forms follow the SMILES beside them. β3hE = N[C@@H](CCC(=O)O)CC(=O)O; β3hD = NC(CC(=O)O)CC(=O)O
What was measured:
[1] = system: p300–HIF-1α complex; test: NMR competition, p300 with equimolar HIF-1α and CITED2 peptide (1H–15N HSQC); assay type: binding, human; details: 13C,15N-p300_330–424, 1.2 eq of each peptide, 10 mM Tris pH 6.9, 50 mM NaCl, 1 mM DTT, 298 K
Procedure: To investigate the reversibility of the competition, samples containing p300 with equimolar amounts of HIF-1α and CITED2_218–256 or CITED2ΔN were prepared. […] (Table S1, ESI ^†). […]
a = KHIF + KCIT + [HIF]t + [CIT]t − [P]t (16)
b = KHIFKCIT + KHIF([CIT]t − [P]t) + KCIT([HIF]t − [P]t) (17)
KHIF = dissociation constant for Flu-HIF-1α, KCIT = dissociation constant for the competitor CITED2 or variant, [CIT]t = total concentration of the competitor CITED2 or variant, [P]t = total concentration of […]
Fitted parameters were: KHIF, KCIT, [HIF]t, [P]t, rP:HIF, rHIF from which KHIF, rP:HIF, rHIF, [HIF]t were kept constant during fitting. KHIF, rP:HIF, rHIF was determined in a separate experiment using HIF-1α776-826 as a competitor
(Fig. S3) [HIF]t was determined using fluorescence intensity measurements relative to a fluorescein calibration curve. [P]t was kept as a floating parameter to account for incompetent protein fraction.
Anisotropy values were normalized and represented as ligand-bound (Lb) values (Eq. 19.) L = (r − rHIF) ∗ [HIF] (19) […]
into three samples: to the first CITED2224-256 was added, to the second CITED2218-256 was added in 1.2 equivalent relative to p300 concentration, and to the third, same volume of buffer was added, and concentrated down to final sample volume. Concentrations were determined based on UV absorbance at 280 nm for p300 and CITED2 variants and at 205 nm for HIF-1α. […]

[2] = molecular target: p300/CBP; parameters: method as in ref 2 (a number printed in a supplementary file, which may have a reference list of its own: not looked up in the article's list); details: ITC, 68% confidence intervals in brackets; read-out: Direct binding to p300/CBP, KD; cited from earlier work
[3] = molecular target: p300-HIF-1α complex; parameters: method as in ref 2 (a number printed in a supplementary file, which may have a reference list of its own: not looked up in the article's list); details: ITC titration against p300-HIF-1α complex, 68% confidence intervals in brackets; read-out: Competition with HIF-1α, KD, apparent; cited from earlier work
[4] = molecular target: p300/CBP; parameters: method as in ref 1 (a number printed in a supplementary file, which may have a reference list of its own: not looked up in the article's list); details: bio-layer interferometry; read-out: Direct binding to p300/CBP, KD; cited from earlier work
[5] = molecular target: CBP bound Alexa594-HIF-1α; parameters: method as in 3 sources, one per row (each row's own in cited_ref): ref 1 (a number printed in a supplementary file, which may have a reference list of its own: not looked up in the article's list) ||| ref 3 (a number printed in a supplementary file, which may have a reference list of its own: not looked up in the article's list) ||| ref 4 (a number printed in a supplementary file, which may have a reference list of its own: not looked up in the article's list); details: FA titration against CBP bound Alexa594-HIF-1α; read-out: Competition with HIF-1α, KD, apparent; cited from earlier work
[6] = molecular target: CBP bound Alexa594-CITED2; parameters: method as in 3 sources, one per row (each row's own in cited_ref): ref 1 (a number printed in a supplementary file, which may have a reference list of its own: not looked up in the article's list) ||| ref 3 (a number printed in a supplementary file, which may have a reference list of its own: not looked up in the article's list) ||| ref 4 (a number printed in a supplementary file, which may have a reference list of its own: not looked up in the article's list); details: FA titration against CBP bound Alexa594-CITED2; read-out: Direct binding to p300/CBP, KD, apparent; cited from earlier work
[7] = molecular target: T1, p300_330–420 (TAZ1 domain) (Homo sapiens, UniProt Q09472); test: ITC direct titration to p300; assay type: binding; details: 5 µM p300_330–420 in cell, 60 µM ligand in syringe, 35 °C, 40 mM Na-phosphate pH 7.5, 100 mM NaCl, 1 mM DTT, global fit with ternary intermediate model, 68% confidence intervals in brackets, read-out: Direct binding to p300, K d
T1 construct: from residues 330-420 (used for FA and ITC experiments); GST (N, cleaved yes); made in house; host or cells: E. coli BL21 pLysS (pGEX-4T-1)

[8] = molecular target: T2, p300–Flu-HIF-1α (Homo sapiens, UniProt Q09472); test: Fluorescence anisotropy competition against p300–Flu-HIF-1α; assay type: binding; details: 50 nM p300_330–420, 25 nM Flu-HIF-1α786–826 tracer, 40 mM Na-phosphate, 100 mM NaCl, 1 mM DTT, 0.01% Triton-X, pH 7.4, 10 min at 35 °C; fixed KD = 64 nM for tracer; three repeats; read-out: Kd,app FA competition against p300–Flu-HIF-1α
T2 construct: from residues 330-420 (used for FA and ITC experiments); GST (N, cleaved yes); made in house; host or cells: p300: E. coli BL21 pLysS (pGEX-4T-1); tracer peptide: solid-phase synthesis
T2 sequence (Q09472 330-420): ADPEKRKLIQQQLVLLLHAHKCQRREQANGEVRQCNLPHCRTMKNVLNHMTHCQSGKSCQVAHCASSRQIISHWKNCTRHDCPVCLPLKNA

T1 sequence (Q09472 330-420): as above

For “CITED2_224–259: CITED2 residues 224–259, longer C terminus, without N-terminal tail (DEEVLMSLVIEMGLDRIKELPELWLGQNEFDFMTDF; UniProt Q99967 224-259, looked up, fragment)”, the “Species observed in sample with equimolar HIF-1α and CITED2 peptide (reversibility of competition)” value [1] is given as “did not influence competition efficiency or unidirectionality”, the Kd [2] is given as 0.009 µM and the Kd [3] is given as 0.012 µM.
In the case of “CITED2216-269: CITED2 residues 216–269, previously reported (NVIDTDFIDEEVLMSLVIEMGLDRIKELPELWLGQNEFDFMTDFVCKQQPSRVS; UniProt Q99967 216-269, looked up, fragment)”, the Kd [4] is listed as 0.009 ± 0.002 µM, the Kd [5] is listed as 0.0002 ± 0.0001 µM and the Kd [6] is listed as 0.01 ± 0.001 µM. The Kd [2] was 0.026 µM and the Kd [3] was 0.0011 µM.
In the case of “CITED2216-246: CITED2 residues 216–246, previously reported (NVIDTDFIDEEVLMSLVIEMGLDRIKELPEL; UniProt Q99967 216-246, looked up, fragment)”, the Kd [5] is listed as 0.21 ± 0.02 µM and the Kd [6] is listed as 5 ± 1 µM.
For HIF-1α786-826: HIF-1α residues 786–826, the Kd [2] is given as 0.043 µM.
`CC[C@H](C)[C@H](NC(C)=O)C(=O)N[C@@H](CC(=O)O)C(=O)N[C@H](C(=O)N[C@@H](CC(=O)O)C(=O)N[C@@H](Cc1ccccc1)C(=O)N[C@H](C(=O)N[C@@H](CC(=O)O)C(=O)N[C@@H](CCC(=O)O)C(=O)N[C@@H](CCC(=O)O)C(=O)N[C@H](C(=O)N[C@@H](CC(C)C)C(=O)N[C@@H](CCSC)C(=O)N[C@@H](CO)C(=O)N[C@@H](CC(C)C)C(=O)N[C@H](C(=O)N[C@H](C(=O)N[C@@H](CCC(=O)O)C(=O)N[C@@H](CCSC)C(=O)NCC(=O)N[C@@H](CC(C)C)C(=O)N[C@@H](CC(=O)O)CC(=O)N[C@@H](CCCNC(=N)N)C(=O)N[C@H](C(=O)N[C@@H](CCCCN)C(=O)N[C@@H](CCC(=O)O)CC(=O)N[C@@H](CC(C)C)C(=O)N1CCC[C@H]1C(=O)N[C@@H](CCC(=O)O)CC(=O)N[C@@H](CC(C)C)C(=O)N[C@@H](Cc1c[nH]c2ccccc12)C(=O)N[C@@H](CC(C)C)C(=O)NCC(=O)N[C@@H](CCC(N)=O)C(=O)N[C@@H](CC(N)=O)C(=O)N[C@@H](CCC(=O)O)C(=O)N[C@@H](Cc1ccccc1)C(=O)N[C@@H](CC(=O)O)C(=O)N[C@@H](Cc1ccccc1)C(=O)N[C@@H](CCSC)C(N)=O)[C@@H](C)CC)[C@@H](C)CC)C(C)C)C(C)C)[C@@H](C)CC)[C@@H](C)O` [3a] (Ac-IDTDFIDEEVLMSLVIEMGL[β3hD]RIK[β3hE]LP[β3hE]LWLGQNEFDFM-NH2) showed a Kd [7] of 0.675 µM and a Kd [8] of over 0.6 µM.
Work on `CC[C@H](C)[C@H](NC(C)=O)C(=O)N[C@@H](CC(=O)O)CC(=O)N[C@H](C(=O)N[C@@H](CC(=O)O)CC(=O)N[C@@H](Cc1ccccc1)C(=O)N[C@H](C(=O)N[C@@H](CC(=O)O)CC(=O)N[C@@H](CCC(=O)O)C(=O)N[C@@H](CCC(=O)O)C(=O)N[C@H](C(=O)N[C@@H](CC(C)C)C(=O)N[C@@H](CCSC)C(=O)N[C@@H](CO)C(=O)N[C@@H](CC(C)C)C(=O)N[C@H](C(=O)N[C@H](C(=O)N[C@@H](CCC(=O)O)C(=O)N[C@@H](CCSC)C(=O)NCC(=O)N[C@@H](CC(C)C)C(=O)N[C@@H](CC(=O)O)C(=O)N[C@@H](CCCNC(=N)N)C(=O)N[C@H](C(=O)N[C@@H](CCCCN)C(=O)N[C@@H](CCC(=O)O)C(=O)N[C@@H](CC(C)C)C(=O)N1CCC[C@H]1C(=O)N[C@@H](CCC(=O)O)C(=O)N[C@@H](CC(C)C)C(=O)N[C@@H](Cc1c[nH]c2ccccc12)C(=O)N[C@@H](CC(C)C)C(=O)NCC(=O)N[C@@H](CCC(N)=O)C(=O)N[C@@H](CC(N)=O)C(=O)N[C@@H](CCC(=O)O)C(=O)N[C@@H](Cc1ccccc1)C(=O)N[C@@H](CC(=O)O)C(=O)N[C@@H](Cc1ccccc1)C(=O)N[C@@H](CCSC)C(N)=O)[C@@H](C)CC)[C@@H](C)CC)C(C)C)C(C)C)[C@@H](C)CC)[C@@H](C)O` [compound 1] (Ac-I[β3hD]T[β3hD]FI[β3hD]EEVLMSLVIEMGLDRIKELPELWLGQNEFDFM-NH2) yielded a Kd [7] of 0.019 µM and a Kd [8] of 0.0096 ± 0.0024 µM.
In the case of “CITED2216-248: CITED2 residues 216–248, previously reported (NVIDTDFIDEEVLMSLVIEMGLDRIKELPELWL; UniProt Q99967 216-248, looked up, fragment)”, the Kd [2] is listed as 0.303 µM and the Kd [3] is listed as 0.047 µM.
